Legend:
human NaV1.7 [1] = target: T1, human NaV1.7 (Homo sapiens, UniProt Q15858); experiment: 125I-ProTx-II radioligand binding to live HEK293 cells stably expressing human NaV1.7; settings: 0.5 nM 125I-ProTx-II, 3 h, increasing concentrations of cold peptide
human NaV1.7 [2] = target: T1, human NaV1.7
human NaV1.7 [3] = target: T1, human NaV1.7; remark: listed apart in the source
wild-type NaV1.5 [4] = target: T2, wild-type NaV1.5 (Homo sapiens, UniProt Q14524)
human NaV1.7 [5] = target: T1, human NaV1.7; remark: listed apart in the source
human NaV1.7 [6] = target: T1, human NaV1.7; remark: listed apart in the source
human NaV1.4 [7] = target: T3, human NaV1.4 (Homo sapiens, UniProt P35499); experiment: PatchXpress (PX) automated electrophysiology, human NaV1.4; type: cell-based; settings: for IC50: PX platform, at least ten cells, two to three data points per concentration
Procedure: (§1) Human NaV (hNaV) stably transfected cell lines in HEK293 or CHO backgrounds and cell culture methods were as previously described. hNaV1.1-hNaV1.7 cells were obtained from Eurofins Pharma Discovery Services (St. Charles, MO), and hNaV1.8 cells were generated in house. Whole cell patch clamp, PatchXpress, and IWQ electrophysiology voltage protocols as well as DRG neuron isolation were carried out as previously described. NaV1.7-NaV1.5 chimeras were generated and evaluated in BacMam transduced U2-OS cells on the IWQ platform as previously described.

human NaV1.5 [8] = target: T4, human NaV1.5 (Homo sapiens, UniProt Q14524); experiment: PatchXpress (PX) automated electrophysiology, human NaV1.5; type: cell-based; settings: for IC50: PX platform, at least ten cells, two to three data points per concentration
human NaV1.4 [9] = target: T3, human NaV1.4; experiment: Manual whole cell patch clamp, human NaV1.4; type: cell-based; settings: 20% channel inactivation, n = 2–4 cells per data point
Procedure: as §1
(§2) Fig 5 Selectivity of AM-8145 for human NaV channels in heterologous cells and native NaV currents in mDRG neurons. A. Concentration response curves for TTX-S channels including NaV1.1-NaV1.4, NaV1.6-NaV1.7 and mDRG TTX-S. IC50 values with fold-selectivity compared to NaV1.7 are listed in parenthesis. AM-8145 was 30- to 120-fold selective for NaV1.7 over NaV1.1-NaV1.4 and NaV1.6. B. Concentration response curves for TTX-R channels including NaV1.5, NaV1.8 and mDRG TTX-R. AM-8145 was over 1,700-fold selective for NaV1.7 over NaV1.5, NaV1.8 and mDRG TTX-R. Curves in A and B were derived from whole cell patch clamp experiments. Data are presented as mean ± SEM with n = 2–4 cells per data point. C. Representative current traces for TTX-S channels before (black) and after (red) 10 nM AM-8145 addition. […]

[10] = system: NaV1.7/NaV1.5 chimera DIS (first NaV1.7 voltage-sensor domain in NaV1.5 backbone); experiment: IWQ chimera mapping, chimera DIS; type: cell-based, human; settings: IWQ platform; BacMam transduced U2-OS cells
Procedure: as §1
(§3) Given the lack of robust bioactivity of AM-8145 on NaV1.5, we evaluated AM-8145 functional block on a battery of human NaV1.7-NaV1.5 chimeric channels, in which individual voltage sensor domains (transmembrane domains S1-S4 of domains I-IV) or the entire pore domain (transmembrane domains S5-S6 of domains I-IV) of NaV1.7 were inserted into the NaV1.5 backbone.
(§4) Fig 4 AM-8145 maps to the second voltage sensor domain on hNaV1.7. Potency of AM-8145 inhibition of wild-type NaV1.7, wild-type NaV1.5, or chimeric NaV1.7/NaV1.5 channels (red illustrates NaV1.7 sequence and gray illustrates NaV1.5 sequence) on the IWQ platform (mean ± SEM). D = “Domain”; S = “Sensor” corresponding to transmembrane segments 1–4; P = “Pore” corresponding to transmembrane segments 5–6. […]

[11] = target: T5, native TTX-R NaV1.8 channels in mouse DRG neurons (Mus musculus, UniProt Q6QIY3); experiment: Manual whole cell patch clamp, native TTX-R NaV channels in mouse DRG neurons; type: cell-based; settings: 20% channel inactivation
T5 construct: endogenous in cells; host or cells: dissociated mouse DRG neurons
Procedure: as §1, §2

[12] = system: NaV1.7/NaV1.5 chimera DIIIS (third NaV1.7 voltage-sensor domain in NaV1.5 backbone); experiment: IWQ chimera mapping, chimera DIIIS; type: cell-based, human; settings: IWQ platform; BacMam transduced U2-OS cells
Procedure: as §1, §3, §4

human NaV1.2 = human NaV1.2 (Homo sapiens, UniProt Q99250); experiment: Manual whole cell patch clamp, human NaV1.2; type: cell-based; settings: 20% channel inactivation, n = 2–4 cells per data point
Procedure: as §1, §2

human NaV1.7 [13] = target: T1, human NaV1.7; experiment: Manual whole cell patch clamp, human NaV1.7; type: cell-based
wild-type NaV1.7 = target: T6, wild-type NaV1.7 (Homo sapiens, UniProt Q15858); experiment: IWQ chimera mapping, wild-type NaV1.7; type: cell-based; settings: IWQ platform; mean ± SEM
T6 construct: expressed in transfected cells; host or cells: BacMam transduced U2-OS cells
Procedure: as §1, §3, §4

wild-type NaV1.5 [14] = target: T2, wild-type NaV1.5; experiment: IWQ chimera mapping, wild-type NaV1.5; type: cell-based; parameters: expressed in transfected cells; host or cells: BacMam transduced U2-OS cells; settings: IWQ platform
Procedure: as §1, §3, §4

[15] = system: NaV1.7/NaV1.5 chimera DIVS (fourth NaV1.7 voltage-sensor domain in NaV1.5 backbone); experiment: IWQ chimera mapping, chimera DIVS; type: cell-based, human; settings: IWQ platform; BacMam transduced U2-OS cells
Procedure: as §1, §3, §4

human NaV1.8 = target: T7, human NaV1.8 (Homo sapiens, UniProt Q9Y5Y9); experiment: Manual whole cell patch clamp, human NaV1.8; type: cell-based; settings: 20% channel inactivation
T7 construct: expressed in transfected cells
Procedure: as §1, §2

human NaV1.5 [16] = target: T4, human NaV1.5; experiment: in vitro; type: cell-based
Procedure: as §1, §2

T1 sequence (Q15858 whole entry): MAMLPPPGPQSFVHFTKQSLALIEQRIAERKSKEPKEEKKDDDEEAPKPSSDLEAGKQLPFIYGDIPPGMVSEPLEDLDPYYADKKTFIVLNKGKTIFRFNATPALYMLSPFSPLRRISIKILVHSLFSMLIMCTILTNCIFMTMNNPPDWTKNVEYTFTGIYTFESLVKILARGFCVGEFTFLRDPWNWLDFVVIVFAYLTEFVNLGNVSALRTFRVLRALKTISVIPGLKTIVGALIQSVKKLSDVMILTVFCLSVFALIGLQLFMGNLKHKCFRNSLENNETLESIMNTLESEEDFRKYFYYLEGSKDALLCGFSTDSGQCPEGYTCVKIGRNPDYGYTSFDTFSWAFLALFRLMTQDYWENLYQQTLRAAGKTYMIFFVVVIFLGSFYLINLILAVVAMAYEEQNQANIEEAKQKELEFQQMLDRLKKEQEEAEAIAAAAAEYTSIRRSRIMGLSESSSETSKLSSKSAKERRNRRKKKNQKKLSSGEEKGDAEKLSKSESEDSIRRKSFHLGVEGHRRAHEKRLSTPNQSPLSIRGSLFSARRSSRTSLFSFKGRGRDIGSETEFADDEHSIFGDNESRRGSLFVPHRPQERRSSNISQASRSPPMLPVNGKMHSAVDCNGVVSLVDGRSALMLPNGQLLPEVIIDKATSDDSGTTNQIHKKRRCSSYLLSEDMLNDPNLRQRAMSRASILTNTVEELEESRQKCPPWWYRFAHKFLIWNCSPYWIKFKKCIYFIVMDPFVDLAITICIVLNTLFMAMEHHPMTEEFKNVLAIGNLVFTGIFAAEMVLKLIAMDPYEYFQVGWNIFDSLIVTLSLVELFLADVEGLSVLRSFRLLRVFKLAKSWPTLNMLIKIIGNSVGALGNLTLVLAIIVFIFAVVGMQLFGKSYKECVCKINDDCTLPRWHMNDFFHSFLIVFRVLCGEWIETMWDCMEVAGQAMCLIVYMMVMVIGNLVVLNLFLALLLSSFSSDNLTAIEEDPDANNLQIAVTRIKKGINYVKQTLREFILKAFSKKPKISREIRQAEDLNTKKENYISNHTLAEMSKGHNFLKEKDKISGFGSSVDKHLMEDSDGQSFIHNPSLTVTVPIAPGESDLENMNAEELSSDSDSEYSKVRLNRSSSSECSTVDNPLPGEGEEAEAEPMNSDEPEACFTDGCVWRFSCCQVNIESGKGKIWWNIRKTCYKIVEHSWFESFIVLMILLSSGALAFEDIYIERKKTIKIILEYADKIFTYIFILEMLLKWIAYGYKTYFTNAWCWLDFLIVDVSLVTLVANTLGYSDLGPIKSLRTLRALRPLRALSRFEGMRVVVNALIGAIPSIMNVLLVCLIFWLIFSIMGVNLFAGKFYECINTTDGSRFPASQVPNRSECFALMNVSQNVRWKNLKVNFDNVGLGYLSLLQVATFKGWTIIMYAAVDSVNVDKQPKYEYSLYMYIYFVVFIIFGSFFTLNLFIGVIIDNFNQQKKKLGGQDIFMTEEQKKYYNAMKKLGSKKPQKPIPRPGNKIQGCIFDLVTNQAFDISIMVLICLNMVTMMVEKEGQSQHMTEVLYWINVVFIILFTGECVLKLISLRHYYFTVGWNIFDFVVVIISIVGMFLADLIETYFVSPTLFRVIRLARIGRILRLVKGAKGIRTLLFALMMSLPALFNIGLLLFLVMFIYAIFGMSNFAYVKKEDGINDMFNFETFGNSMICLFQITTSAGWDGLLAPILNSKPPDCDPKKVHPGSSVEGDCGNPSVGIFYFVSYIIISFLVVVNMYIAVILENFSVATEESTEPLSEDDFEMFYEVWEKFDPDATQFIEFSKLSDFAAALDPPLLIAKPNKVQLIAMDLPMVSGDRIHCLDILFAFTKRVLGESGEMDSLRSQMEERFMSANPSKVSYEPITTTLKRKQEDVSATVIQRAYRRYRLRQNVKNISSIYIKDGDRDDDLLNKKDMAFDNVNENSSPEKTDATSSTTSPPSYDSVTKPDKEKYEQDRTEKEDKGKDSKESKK
T3 sequence (P35499 whole entry): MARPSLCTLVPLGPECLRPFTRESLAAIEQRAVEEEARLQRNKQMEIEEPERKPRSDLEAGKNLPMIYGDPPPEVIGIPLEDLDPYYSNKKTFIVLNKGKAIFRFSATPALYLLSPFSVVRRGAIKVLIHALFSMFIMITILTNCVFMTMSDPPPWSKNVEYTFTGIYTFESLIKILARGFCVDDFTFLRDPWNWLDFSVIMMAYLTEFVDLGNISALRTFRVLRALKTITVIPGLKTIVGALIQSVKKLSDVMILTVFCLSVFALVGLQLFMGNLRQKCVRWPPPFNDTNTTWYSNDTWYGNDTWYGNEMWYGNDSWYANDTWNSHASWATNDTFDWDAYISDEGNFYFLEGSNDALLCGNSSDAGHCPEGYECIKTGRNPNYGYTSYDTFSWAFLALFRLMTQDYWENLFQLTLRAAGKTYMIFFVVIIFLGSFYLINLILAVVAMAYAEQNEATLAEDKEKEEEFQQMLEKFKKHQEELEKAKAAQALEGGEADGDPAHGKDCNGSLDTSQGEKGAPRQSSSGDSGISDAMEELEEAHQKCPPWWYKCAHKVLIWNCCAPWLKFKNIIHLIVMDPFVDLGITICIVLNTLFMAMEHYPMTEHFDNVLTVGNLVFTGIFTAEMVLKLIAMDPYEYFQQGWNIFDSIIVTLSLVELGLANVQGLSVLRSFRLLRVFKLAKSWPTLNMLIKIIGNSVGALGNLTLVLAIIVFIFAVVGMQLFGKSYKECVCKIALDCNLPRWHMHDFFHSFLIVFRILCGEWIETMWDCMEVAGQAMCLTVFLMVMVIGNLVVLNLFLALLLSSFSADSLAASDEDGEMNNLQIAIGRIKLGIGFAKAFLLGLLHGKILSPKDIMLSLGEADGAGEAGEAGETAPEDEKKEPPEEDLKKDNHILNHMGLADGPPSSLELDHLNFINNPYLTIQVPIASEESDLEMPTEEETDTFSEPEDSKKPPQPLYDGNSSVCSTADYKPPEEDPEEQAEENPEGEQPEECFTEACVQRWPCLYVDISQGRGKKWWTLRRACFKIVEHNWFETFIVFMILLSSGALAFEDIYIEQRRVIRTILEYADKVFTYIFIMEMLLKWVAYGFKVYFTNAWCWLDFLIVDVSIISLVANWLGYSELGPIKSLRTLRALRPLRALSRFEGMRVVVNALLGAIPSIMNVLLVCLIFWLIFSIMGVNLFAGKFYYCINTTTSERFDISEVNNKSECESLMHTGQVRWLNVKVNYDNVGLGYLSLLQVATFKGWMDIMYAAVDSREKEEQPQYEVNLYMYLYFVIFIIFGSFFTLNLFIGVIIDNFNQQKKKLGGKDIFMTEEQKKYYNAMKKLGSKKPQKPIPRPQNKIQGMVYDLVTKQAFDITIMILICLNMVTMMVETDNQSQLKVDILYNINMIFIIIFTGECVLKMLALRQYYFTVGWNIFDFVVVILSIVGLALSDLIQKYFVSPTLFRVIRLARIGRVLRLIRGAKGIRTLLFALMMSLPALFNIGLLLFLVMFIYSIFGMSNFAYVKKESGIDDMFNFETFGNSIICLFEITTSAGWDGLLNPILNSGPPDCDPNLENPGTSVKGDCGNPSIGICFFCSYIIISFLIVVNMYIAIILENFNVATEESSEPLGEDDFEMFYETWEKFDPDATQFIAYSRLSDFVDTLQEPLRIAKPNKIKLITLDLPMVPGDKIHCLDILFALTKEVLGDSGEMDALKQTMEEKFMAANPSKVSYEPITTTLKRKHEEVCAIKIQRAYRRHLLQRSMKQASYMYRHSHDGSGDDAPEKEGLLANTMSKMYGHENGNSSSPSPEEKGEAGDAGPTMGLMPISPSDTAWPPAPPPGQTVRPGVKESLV
Sequence of JzTx-V(1–29) (Q2PAY4 54-83): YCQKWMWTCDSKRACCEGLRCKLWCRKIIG
T6 sequence (Q15858 whole entry): as the sequence (Q15858 whole entry) above

In the case of “HwTx-IV (ECLEIFKACNPSNDQCCKSSKLVCSRKTRWCKYQIGK)”, the “competition for 125I-ProTx-II binding” value (human NaV1.7 [1]) is reported as “competed”.
With Pra-[Nle6;Glu28]JzTx-V(1–29) (peptide) the IC50 of block of human NaV1.7, manual patch clamp, voltage protocol with 20% of NaV channels inactivated (human NaV1.7 [2]) was 0.58 nM, the NaV1.7 IC50 (nM), block of human NaV1.7 current, PatchXpress (PX) platform (human NaV1.7 [3]) was 0.5 nM and the IC50 of block of wild-type NaV1.5, IWQ platform (chimera panel) (wild-type NaV1.5 [4]) was greater than 3 µM. For the same compound, the IC50 of block of wild-type NaV1.7, IWQ platform (chimera panel) (human NaV1.7 [5]) was 0.05 µM.
With “JzTx-V(1–29) (from UniProt Q2PAY4 54-83) (peptide)” the potency (IC50) of inhibition of NaV1.7 by manual patch clamp, voltage protocol with 20% of channels inactivated (human NaV1.7 [6]) was 0.15 nM and the NaV1.7 IC50 (nM), block of human NaV1.7 current in HEK293 cells, PatchXpress (PX) platform (human NaV1.7 [3]) was 0.6 nM.
`C#CC[C@H](N)C(=O)N[C@H]1CSSC[C@@H]2NC(=O)[C@@H]3CSSC[C@@H](C(=O)N[C@@H](CCCNC(=N)N)C(=O)N[C@@H](CCCCN)C(=O)N[C@@H](CCC(=O)O)C(=O)N[C@H](C(N)=O)[C@@H](C)CC)NC(=O)[C@H](Cc4c[nH]c5ccccc45)NC(=O)[C@H](CC(C)C)NC(=O)[C@H](CCCCN)NC(=O)[C@H](CSSC[C@H](NC(=O)[C@H]([C@@H](C)O)NC(=O)[C@H](Cc4c[nH]c5ccccc45)NC(=O)[C@H](CCCC)NC(=O)[C@H](Cc4c[nH]c5ccccc45)NC(=O)[C@H](CCCCN)NC(=O)[C@H](CCC(N)=O)NC1=O)C(=O)N[C@@H](CC(=O)O)C(=O)N[C@@H](CO)C(=O)N[C@@H](CCCCN)C(=O)N[C@@H](CCCNC(=N)N)C(=O)N[C@@H](C)C(=O)N3)NC(=O)[C@H](CCCNC(=N)N)NC(=O)[C@H](CC(C)C)NC(=O)CNC(=O)[C@H](CCC(=O)O)NC2=O` [Peptide 4, [Pra1;Nle6;Glu28]JzTx-V(1–29)] showed an IC50 (human NaV1.4 [7]) of 89 nM and an IC50 (human NaV1.5 [8]) of 4.6 µM.
`C#CC[C@H](N)C(=O)N[C@@H](Cc1ccc(O)cc1)C(=O)N[C@H]1CSSC[C@@H]2NC(=O)[C@@H]3CSSC[C@@H](C(=O)N[C@@H](CCCNC(=N)N)C(=O)N[C@@H](CCCCN)C(=O)N[C@@H](CCC(=O)O)C(=O)N[C@H](C(N)=O)[C@@H](C)CC)NC(=O)[C@H](Cc4c[nH]c5ccccc45)NC(=O)[C@H](CC(C)C)NC(=O)[C@H](CCCCN)NC(=O)[C@H](CSSC[C@H](NC(=O)[C@H]([C@@H](C)O)NC(=O)[C@H](Cc4c[nH]c5ccccc45)NC(=O)[C@H](CCCC)NC(=O)[C@H](Cc4c[nH]c5ccccc45)NC(=O)[C@H](CCCCN)NC(=O)[C@H](CCC(N)=O)NC1=O)C(=O)N[C@@H](CC(=O)O)C(=O)N[C@@H](CO)C(=O)N[C@@H](CCCCN)C(=O)N[C@@H](CCCNC(=N)N)C(=O)N[C@@H](C)C(=O)N3)NC(=O)[C@H](CCCNC(=N)N)NC(=O)[C@H](CC(C)C)NC(=O)CNC(=O)[C@H](CCC(=O)O)NC2=O` [AM-8145, Pra-[Nle6;Glu28]JzTx-V(1–29)] was tested, and the IC50 (human NaV1.4 [9]) was 71 nM, the IC50 [10] was greater than 3000 nM and the IC50 [11] was greater than 1000 nM. The IC50 [12] was greater than 3000 nM, the IC50 (human NaV1.2) was 43.5 nM and the “selectivity over human TTX-R channels (NaV1.5, NaV1.8) and native TTX-R channels in mouse DRG neurons” value (human NaV1.7 [13]; manual patch clamp IC50 ratios) was “over 1,000 fold”. For the same compound, the “selectivity over other human TTX-S Nav channels (NaV1.1, NaV1.2, NaV1.3, NaV1.4, NaV1.6)” value (human NaV1.7 [13]; manual patch clamp IC50 ratios) was 30- to 120 fold, the IC50 (human NaV1.7 [13]; manual patch clamp, voltage protocol with 20% of channels inactivated) was 0.58 nM and the “selectivity for NaV1.7 over NaV1.4” value (human NaV1.4 [7]; PX platform IC50 ratio) was 300 fold. It also gave an IC50 (human NaV1.4 [7]) of 145 nM, an IC50 (human NaV1.5 [8]) of 3 µM and a selectivity ratio (human NaV1.5 [8]; human, PX platform IC50 ratio, read-out: selectivity for NaV1.7 over NaV1.5) of 6000. The IC50 (wild-type NaV1.7) was 50 ± 10 nM, the IC50 (wild-type NaV1.5 [14]) was greater than 3 µM and the IC50 [15] was greater than 3000 nM. The IC50 (human NaV1.8) was greater than 1000 nM, the selectivity ratio (human NaV1.5 [16]; manual patch clamp IC50 ratio, read-out: fold-selectivity compared to NaV1.7, NaV1.5) was greater than 1700 and the IC50 (human NaV1.5 [16]; manual patch clamp, 20% channel inactivation) was greater than 1000 nM.

Reference: PMC5933747 (PLoS ONE, 2018)
